Laboratory results: PubChem BioAssay (NCI)
“And” between values parts separate entries of the source, which are not always exact repeats. Equal values may be shown once.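 Following 48 hours of exposure in 96-well plates, responses at five concentrations were used to interpolate endpoints linearly. GI50 = concentration required for 50% inhibition of growth. TGI marks complete inhibition of growth.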

What was measured:
Assay in all cases: NCI anticancer screen, dose series, 48 h
OVCAR-5 ovarian = tested on: OVCAR-5 ovarian
786-0 renal = tested on: 786-0 renal
MCF7 breast = tested on: MCF7 breast
IGROV1 ovarian = tested on: IGROV1 ovarian
RXF 393 renal = tested on: RXF 393 renal
PC-3 prostate = tested on: PC-3 prostate
SK-OV-3 ovarian = tested on: SK-OV-3 ovarian
UO-31 renal = tested on: UO-31 renal
NCI-H23 lung = tested on: NCI-H23 lung
HS 578T breast = tested on: HS 578T breast

Row | Structure (SMILES) | GI50 (OVCAR-5 ovarian) | TGI (OVCAR-5 ovarian) | GI50 (786-0 renal) | TGI (786-0 renal) | GI50 (MCF7 breast) | TGI (MCF7 breast) | GI50 (IGROV1 ovarian) | TGI (IGROV1 ovarian) | GI50 (RXF 393 renal) | TGI (RXF 393 renal) | GI50 (PC-3 prostate) | TGI (PC-3 prostate) | GI50 (SK-OV-3 ovarian) | TGI (SK-OV-3 ovarian) | GI50 (UO-31 renal) | TGI (UO-31 renal) | GI50 (NCI-H23 lung) | TGI (NCI-H23 lung) | GI50 (HS 578T breast) | TGI (HS 578T breast)
1 | O=[N+]([O-])c1cccc(/C=C/c2ccccn2)c1 | 49.7 µM | > 100 µM | 36.7 µM | > 100 µM | 0.569 µM | > 100 µM | 28 µM | > 100 µM | 8.6 µM | > 100 µM | 29.1 µM | > 100 µM | 33.6 µM | > 100 µM | 23.3 µM | > 100 µM | 30 µM | > 100 µM | 32.7 µM | > 100 µM
2 | C/C(=C1/N=C(c2ccccc2)OC1=O)c1ccc(C)cc1 |  | > 100 µM |  | > 100 µM |  | > 100 µM |  | > 100 µM |  | > 100 µM |  | > 100 µM |  | > 100 µM |  |  |  | > 100 µM |  | > 100 µM
3 | COc1cc2cn3c4ccc(O)cc4nc(N)c3c2cc1OC | 2.6 µM | 14.1 µM | 0.675 µM | 3.05 µM | 0.174 µM | 4.15 µM | 0.706 µM | 15.1 µM | 0.283 µM | 2.5 µM | 0.474 µM | 14.7 µM | 0.211 µM | 10.8 µM | 0.235 µM | 2.48 µM | 0.968 µM | 4.88 µM | 0.626 µM | 22.2 µM
4 | COc1cc(/C=C/C(=O)NC[C@]2(O)CCC3C4CCc5cc(O)ccc5C4CCC32C)ccc1O (some centres not stated) | 56.9 µM | > 100 µM | 11.3 µM | 45.7 µM | 13.4 µM | > 100 µM | 10.9 µM | 62.7 µM | 6.42 µM | 85.5 µM | 5.2 µM | > 100 µM | 82.6 µM | > 100 µM | 4.93 µM | 49.3 µM | 5.63 µM | 34 µM | 67.6 µM | > 100 µM
5 | Cc1cc(S(N)(=O)=O)c(S/C(=N\Nc2ccc([N+](=O)[O-])cc2)c2ccc(O)cc2)cc1Cl | 2.09 µM | 4.71 µM | 3.8 µM | 13.5 µM | 2.19 µM | 5.06 µM | 4.62 µM | 19.9 µM | 0.676 µM | 3.5 µM | 3.26 µM | 8.55 µM | 4.32 µM | 18.4 µM | 5.66 µM | 23 µM | 2.42 µM | 7.54 µM | 2.92 µM | 9.27 µM
6 | C=CC[N+]1(CCO)CCN=C1CCCCCCCCCCCCC (configuration not stated) |  |  | 1.65 µM | 3.01 µM | 1.5 µM | 2.82 µM | 0.288 µM | 1.25 µM | 1.44 µM | 2.81 µM | 1.37 µM | 2.85 µM | 1.73 µM | 3.14 µM | 1.18 µM | 2.57 µM | 1.5 µM | 2.82 µM | 1.58 µM | 3.76 µM
7 | COc1cccc2c1C(=O)c1c(O)c3c(c(O)c1C2=O)C[C@@](O)(C(=O)CO)C[C@@H]3OC1CC(OC(C)=O)C(OC(C)=O)C(C)O1 (some centres not stated) | 1.16 µM | 5 µM | 0.272 µM | 1.41 µM | < 0.0284 µM | 7.64 µM |  | 3.91 µM | 1.41 µM | 3.72 µM | 1.48 µM | > 23.3 µM | 0.83 µM | 6.5 µM | 0.258 µM | 1.99 µM | 0.227 µM | 1.5 µM |  | 4.14 µM
8 | S=c1nc[nH]c2nc[nH]c12 | 5.75 µM and > 32.3 µM | > 100 µM and 651 µM and > 750 µM | 0.7 µM and 5.34 µM | > 750 µM |  | > 100 µM and 512 µM and > 413 µM | 23.3 µM | > 100 µM and 695 µM and > 750 µM |  | > 100 µM and 629 µM and > 750 µM | 7.96 µM and 18.7 µM | > 750 µM | 0.629 µM and 5.06 µM | > 100 µM and 448 µM and > 750 µM | 4.1 µM and 5.55 µM | > 100 µM and 619 µM | 3.11 µM and 7.97 µM | > 100 µM and 271 µM and > 750 µM | 9.62 µM and 30.8 µM | > 100 µM and 561 µM and > 612 µM
9 | CN(C)CCN1C(=O)c2cccc3c(N)ccc(c23)C1=O | 15.1 µM | > 25 µM | 14.1 µM | > 25 µM | 7.59 µM | > 25 µM |  |  | 7.91 µM | 24.8 µM | 13.5 µM | > 25 µM | 15.9 µM | > 25 µM | 6.76 µM | > 25 µM | 15 µM | > 25 µM | 15.7 µM | > 25 µM
10 | O=C(Nc1ccc(Cl)cc1F)c1cc(F)ccc1O | 3.26 µM | 23 µM | 2.73 µM | 9.73 µM | 1.77 µM | 9.28 µM | 0.597 µM | 17.2 µM | 0.864 µM | 4.28 µM | 1.49 µM | 6.73 µM | 1.25 µM | 10.4 µM | 0.314 µM | 3.38 µM | 0.553 µM | 3.29 µM | 0.718 µM | 5.3 µM
11 | CN(C)c1ccc(/C=C/c2ccnc3ccc4ccccc4c23)cc1 |  |  |  | > 100 µM |  | > 100 µM |  | 45.8 µM |  | 44.9 µM |  | > 100 µM |  | > 100 µM |  | > 100 µM |  | > 100 µM |  | > 100 µM
12 | CCN1/C(=C/C=C/C=C/c2sc3ccccc3[n+]2CC)Sc2ccccc21 | 0.639 µM | 6.05 µM | 0.516 µM | 1.71 µM | 0.29 µM | 1.3 µM | 0.503 µM | 2.14 µM | 0.805 µM | 2.53 µM | 0.243 µM | 1.39 µM | 0.359 µM | 1.13 µM | 1.66 µM | 4.4 µM | 0.164 µM | 2.33 µM | 0.272 µM | 0.987 µM
13 | Cc1coc2c1CC1OC1(C)CCC1OC1(C)C2 (configuration not stated) |  | > 100 µM |  | > 100 µM |  | > 100 µM |  | > 100 µM |  |  |  | > 100 µM |  | > 100 µM |  | > 100 µM |  | > 100 µM |  | > 100 µM
14 | COc1cc([N+](=O)[O-])c(S(=O)(=O)O)cc1N |  | > 100 µM |  | > 100 µM |  | > 100 µM |  | > 100 µM |  |  |  | > 100 µM |  | > 100 µM |  | > 100 µM |  | > 100 µM |  | > 100 µM
15 | c1ccc(CCCNc2nnnc3ccccc23)cc1 |  | > 100 µM |  | > 100 µM |  | > 100 µM |  | > 100 µM |  | > 100 µM |  | > 100 µM |  | > 100 µM |  |  |  | > 100 µM |  | > 100 µM
